≈ marks a conversion by molar mass, not a printed value. Where “and” joins values, the source holds several entries; their conditions need not be identical. Equal entries are not always repeated.
Assays:
E. coli ∆nfsB = assay: microbe, parasite or virus in culture; type: cell-based; settings: Escherichia coli, read-out: MIC ∆nfsB
Protocol: To assess the biological relevance of the interacting protein and establish the link between nitroreductases to the antibacterial activity of NTC compounds, single (ΔnfsA or ΔnfsB) and double knockouts (ΔnfsA & ΔnfsB) of nitroreductases were generated by phage transduction using strains from the Keio collection.
(§1) The inoculum used for all the experiments is derived from a single seed lot that is maintained as glycerol stocks at −80 °C and are sub cultured on LB plate for isolated colonies. Single colony of each strain is grown in M9 medium. All test compound stocks and dilutions are prepared in DMSO. Serial two-fold dilutions of compounds are prepared separately, with the concentrations ranging from 2 mg/mL to 0.015 mg/mL. To 150 µl (3–7 × 10^5 CFU/ml) of bacterial culture in 96 well microtitre plates, 3 μL compound from each of the dilutions is added to respective wells to obtain final concentrations ranging from 40 µg/mL to 0.3 µg/mL of the test compounds. Media control, culture control and appropriate reference drug controls are included. […] Growth is monitored by checking absorbance at 600 nm (A600). […] The samples from MIC and above concentrations are plated for MBC (Minimum Bactericidal Concentration). The samples are diluted 1:10 and plated on LB agar plates. […] The killing kinetics is determined by enumerating survivors at various time points following compound exposure. E. coli cells (~10^7 CFU/ml; A600 of 0.1) are treated with various concentrations (40 µg/mL to 0.3 µg/mL) of compounds in a 96-well microtitre plate. At various time intervals (0 to 8 h), 30 μl volumes of treated cultures are serially diluted and plated on LB agar plates. […] Data is expressed as the log10 CFU for each drug treatment.
The wild-type E. coli strain BW25113 and the entire Keio collection of knockouts[22] is maintained as glycerol stocks at −80 °C in 96-well deep well blocks. […] These are sub cultured in 150 µl of LB broth (Kanamycin 50 ug/ml, except for the wild-type strain) in 96 well microtiter plates and then adapted into M9 medium with 0.4% glucose. […] Cultures of single gene knockouts that show an altered MIC as compared to that of the wild type are scored as ‘Hits’.

NfsB = target: T1, NfsB (Escherichia coli, UniProt P38489); assay: Nitroreductase activity assay, NfsB; type: biochemical, E. coli; settings: 20 μM compound, 40 μM NADH, 70 nM NfsB; slope of initial velocity
T1 construct: His-tag; made in house; host or cells: E. coli BL21(DE3), pET28a (pET-nfsB)
Protocol: (§2) Enzyme reducing each of the substrates are measured by monitoring the concomitant oxidation of NADPH by NfsA and NADH by NfsB in a fluorescence based assay. The reduction in fluorescence due to the NADH oxidation (excitation 350 nm, emission 460 nm) and NADPH oxidation (excitation 340 nm, emission 485 nm) is recorded using a TECAN Infinite M200Pro spectrophotometer, in half area solid black microtiter plates. This change in fluorescence directly corelates to the reduction of the nitro-compounds in the reaction. The NfsA assays is performed by initiating the reactions with 40 μM NADPH and 10 nM NfsA in 50 mM Tris-HCl (pH 7.4), 5 mM EDTA against 20 μM substrate (5 μl of compounds/substrate dissolved in 100% DMSO) in a total reaction volume of 100 μl at 25 °C. Similarly, the NfsB assay is also performed by initiating the reactions with 40 μM NADH and 70 nM NfsB in 50 mM Tris-HCl (pH 7.4), 5 mM EDTA against 20 μM substrate in a total reaction volume of 100 μl. […] All reactions are performed in replicates of two or more and the fluorescence measurements are made at 10 second intervals for 5–10 minutes.
(§3) Low solubility of the compounds/substrates under the NfsA and NfsB assay conditions precluded determination of their Km. […] The relative fluorescence units (RFU) obtained due to NADPH (excitation 340 nm, emission 485 nm) or NADH (excitation 350 nm, emission 460 nm) oxidation of the first 90 sec reaction is used to compute the slopes using linear regression analysis on GraphPad Prism. Appropriate blank reactions are included to account for background fluorescence/quenching from each of the components such as DMSO, the compound itself and auto-oxidation of NADPH or NADH. Activity of NfsB with a known substrate such as nitrofurantoin is used as a benchmark to plot the relative activities with all the test compounds.

NfsA = target: T2, NfsA (Escherichia coli, UniProt P17117); assay: Nitroreductase activity assay, NfsA; type: biochemical, E. coli; settings: 20 μM compound, 40 μM NADPH, 10 nM NfsA; slope of initial velocity
T2 construct: His-tag; made in house; host or cells: E. coli BL21(DE3), pET28a (pET-nfsA)
Protocol: as §2, §3

AcrB = target: T3, AcrB (Escherichia coli, UniProt P31224); assay: Thermal shift assay with CPM dye; set-up: species or system E. coli; settings: AcrB vs apo-protein; > 1°C implies binding
T3 construct: Full length acrB gene was amplified from E. coli; BW25113; His-tag (C); made in house; host or cells: E. coli C43(DE3), plasmid pET21a
Protocol: AcrB overexpression protocol is adopted from Du. et al.[31]. Full length acrB gene was amplified from E. coli. BW25113 using Forward Primer 5′-[…]-3′ Reverse Primer 5′-[…]-3′ and cloned into the plasmid pET21a. The resultant plasmid that would express AcrB with a C-terminal His-tag is transformed into E. coli strain C43(DE3). The cells are induced on reaching A600 = 0.6 and transferred to 18 °C. The culture is harvested by centrifugation and re-suspended in Buffer A (100 mM Sodium Phosphate, 100 mM NaCl, 10 mM Imidazole, pH = 7.4, 100 µg/ml protease inhibitor cocktail from Roche and 5 U/ml DNase I and 5 mg/ml lysozyme). The cells are lysed at 15000 psi using Emulsiflex and centrifuged at 8000 g for removing cell debris. The membrane is isolated by centrifuging the resultant supernatant at 125000 g (see Coomassie stained SDS-PAGE of the purified protein Figure S9). Membrane solubilisation is done using Buffer A and 1.5% DDM (n-Dodecyl-β-D-Maltoside). Ni-NTA chromatography is used to purify the His-tagged protein and eluted in Buffer A with 300 mM Imidazole and 1.5% DDM.
The assay is performed according to protocols established elsewhere. CPM (N- [4-(7-diethylamino-4-methyl-3-coumarinyl) phenyl] maleimide) is a thiol specific fluorochrome (Excitation 387 nm, Emission 463 nm) and is non-fluorescent in an unbound state. The proteins, on thermal unfolding exposes cysteines allowing the CPM to bind and fluoresce. […]. The thermal denaturation is performed in a fluorimeter that is heated from 25 to 90 °C at a ramp rate of 1 °C/min. The Tm is calculated by analysing the melting profiles using Boltzmann Sigmoid function (GraphPad Prism) and ∆Tm is calculated by measuring the difference between the Tm of inhibitor bound protein and the apo-protein.

E. coli ∆acrB JW0451-2 = assay: MIC, E. coli ∆acrB; type: cell-based; set-up: MIC ∆acrB: unit not given beside the values; settings: for MIC: Escherichia coli, read-out: MIC acrB; for MIC ∆acrB: Table S11
Protocol: as §1

T3 sequence (P31224 whole entry): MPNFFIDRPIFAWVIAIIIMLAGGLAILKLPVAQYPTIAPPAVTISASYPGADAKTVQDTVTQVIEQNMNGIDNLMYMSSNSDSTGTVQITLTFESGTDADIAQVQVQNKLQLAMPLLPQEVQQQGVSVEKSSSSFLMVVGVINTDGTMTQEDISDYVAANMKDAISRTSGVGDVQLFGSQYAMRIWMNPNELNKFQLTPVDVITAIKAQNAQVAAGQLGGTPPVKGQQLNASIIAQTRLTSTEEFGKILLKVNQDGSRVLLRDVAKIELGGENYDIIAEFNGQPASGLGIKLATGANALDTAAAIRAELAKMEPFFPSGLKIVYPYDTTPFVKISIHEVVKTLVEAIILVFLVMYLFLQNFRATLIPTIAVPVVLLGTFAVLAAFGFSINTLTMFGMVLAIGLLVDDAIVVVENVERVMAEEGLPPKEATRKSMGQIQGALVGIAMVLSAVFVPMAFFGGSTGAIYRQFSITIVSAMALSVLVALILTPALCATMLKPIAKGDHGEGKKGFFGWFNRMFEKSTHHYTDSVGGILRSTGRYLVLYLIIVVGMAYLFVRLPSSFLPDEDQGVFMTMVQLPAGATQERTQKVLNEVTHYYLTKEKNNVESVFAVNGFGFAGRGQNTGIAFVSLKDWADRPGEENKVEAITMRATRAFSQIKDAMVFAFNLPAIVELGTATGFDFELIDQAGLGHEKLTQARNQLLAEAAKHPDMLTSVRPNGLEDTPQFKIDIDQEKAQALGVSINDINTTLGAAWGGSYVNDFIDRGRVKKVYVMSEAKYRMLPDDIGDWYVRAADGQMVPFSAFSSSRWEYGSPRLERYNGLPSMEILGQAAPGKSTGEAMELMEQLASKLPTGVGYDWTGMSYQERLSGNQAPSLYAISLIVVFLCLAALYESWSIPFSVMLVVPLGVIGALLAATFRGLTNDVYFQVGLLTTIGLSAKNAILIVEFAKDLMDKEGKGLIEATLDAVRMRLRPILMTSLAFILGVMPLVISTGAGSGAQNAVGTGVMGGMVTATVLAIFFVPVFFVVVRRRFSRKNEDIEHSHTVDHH
T2 sequence (P17117 whole entry): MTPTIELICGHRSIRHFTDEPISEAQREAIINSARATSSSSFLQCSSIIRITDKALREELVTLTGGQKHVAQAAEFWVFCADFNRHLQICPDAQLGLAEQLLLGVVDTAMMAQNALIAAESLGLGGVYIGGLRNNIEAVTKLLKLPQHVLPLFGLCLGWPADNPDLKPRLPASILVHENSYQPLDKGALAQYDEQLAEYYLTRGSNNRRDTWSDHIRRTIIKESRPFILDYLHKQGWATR
T1 sequence (P38489 whole entry): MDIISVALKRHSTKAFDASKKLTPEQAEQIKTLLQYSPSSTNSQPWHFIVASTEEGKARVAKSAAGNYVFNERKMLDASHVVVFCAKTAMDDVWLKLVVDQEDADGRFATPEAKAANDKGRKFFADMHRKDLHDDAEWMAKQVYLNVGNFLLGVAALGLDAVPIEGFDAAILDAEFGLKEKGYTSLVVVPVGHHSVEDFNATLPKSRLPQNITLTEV

For Cc1sc(NC(=O)c2ccc([N+](=O)[O-])s2)nc1-c1ccccc1 [compound 7, N-(5-Methyl-4-phenylthiazol-2-yl)-5-nitrothiophene-2-carboxamide], the MIC (E. coli ∆nfsB) was > 40 µg/mL, the “NfsB activity (rate of compound conversion)” value (from here on “NfsB activity”) (NfsB) was 6.17 µM/min and the “NfsA activity (rate of compound conversion)” value (“NfsA activity” below) (NfsA) was 0.64 µM/min. For the same compound, the “∆Tm” value (AcrB) was 4.13 °C and the MIC (E. coli ∆acrB JW0451-2) was 1.25 µg/mL (≈ 3.62 µM).

O=C(Nc1nc(-c2ccc(F)cc2F)cs1)c1ccc([N+](=O)[O-])s1 [compound 12, N-(4-(2,4-difluorophenyl)thiazol-2-yl)-5-nitrothiophene-2-carboxamide] was tested, and the MIC (E. coli ∆nfsB) was 2.5 µg/mL (≈ 6.81 µM), the “NfsB activity” value (NfsB) was 6.26 µM/min and the “NfsA activity” value (NfsA) was 2.30 µM/min. The “∆Tm” value (AcrB) was 0.68 °C, the MIC (E. coli ∆acrB JW0451-2) was 0.3 µg/mL (≈ 0.817 µM) and the “MIC ∆acrB” value (E. coli ∆acrB JW0451-2) was 0.3.

In the case of O=C(Nc1nc(-c2ccc(F)cc2)cs1)c1ccc([N+](=O)[O-])s1 [compound 15, N-(4-(4-Fluorophenyl)thiazol-2-yl)-5-nitrothiophene-2-carboxamide], the MIC (E. coli ∆nfsB) is reported as 5 µg/mL (≈ 14.3 µM), the “NfsB activity” value (NfsB) is reported as 7.64 µM/min and the “NfsA activity” value (NfsA) is reported as 2.05 µM/min. For the same compound, the “∆Tm” value (AcrB) was 1.75 °C and < 2 °C, the MIC (E. coli ∆acrB JW0451-2) was 0.6 µg/mL (≈ 1.72 µM) and the “MIC ∆acrB” value (E. coli ∆acrB JW0451-2) was 0.6.

For COc1cc(-c2csc(NC(=O)c3ccc([N+](=O)[O-])s3)n2)ccc1Cl [compound 20, N-(4-(4-chloro-3-methoxyphenyl)thiazol-2-yl)-5-nitrothiophene-2-carboxamide], the MIC (E. coli ∆nfsB) was 2.5 µg/mL (≈ 6.32 µM), the “NfsB activity” value (NfsB) was 3.50 µM/min and the “NfsA activity” value (NfsA) was 0.61 µM/min. The “∆Tm” value (AcrB) was 1.86 °C and < 2 °C, the MIC (E. coli ∆acrB JW0451-2) was 0.3 µg/mL (≈ 0.758 µM) and the “MIC ∆acrB” value (E. coli ∆acrB JW0451-2) was 0.3.

With O=C1CN(/N=C/c2ccc([N+](=O)[O-])o2)C(=O)N1 [nitrofurantoin, reference compound] the MIC (E. coli ∆nfsB) was 2.5 µg/mL (≈ 10.5 µM), the “NfsB activity” value (NfsB) was 3.50 µM/min and the “NfsA activity” value (NfsA) was 3.58 µM/min.

Source: article PMC5940854, “Nitrothiophene carboxamides, a novel narrow spectrum antibacterial series: Mechanism of action and Efficacy” (Scientific Reports, 2018)
